Results as given in ChEMBL document CHEMBL1152405, “Bis-anthracenyl isoxazolyl amides have enhanced anticancer activity” (Bioorg Med Chem Lett, 2009).

How the values were obtained:
Format in all cases: functional
[1] = test system: ACHN; assay: Growth inhibition of human ACHN cells after 24 hrs by MTT assay
[2] = test system: M14; assay: Growth inhibition of human M14 cells after 24 hrs by MTT assay; conditions: M14, 24 h
[3] = test system: SK-OV-3; assay: Growth inhibition of human SKOV3 cells at 10 uM after 24 hrs by MTT assay relative to control; parameters: scale not given: the % may be the effect or the level left
[4] = test system: CAKI-1; assay: Growth inhibition of human Caki1 cells at 10 uM after 24 hrs by MTT assay relative to control; parameters: scale not given: the % may be the effect or the level left
[5] = test system: SK-MEL-28; assay: Growth inhibition of human SK-MEL-28 cells at 10 uM after 24 hrs by MTT assay relative to control; parameters: scale not given: the % may be the effect or the level left
[6] = test system: TK-10; assay: Growth inhibition of human TK10 cells after 24 hrs by MTT assay; conditions: TK-10, 24 h
[7] = test system: SR; assay: Growth inhibition of human SR cells after 24 hrs by MTT assay
[8] = test system: MDA-MB-468; assay: Growth inhibition of human MDA-MB-468 cells at 10 uM after 24 hrs by MTT assay relative to control; parameters: scale not given: the % may be the effect or the level left
[9] = test system: NCI/ADR-RES; assay: Growth inhibition of human NCI/ADR-RES cells after 24 hrs by MTT assay
[10] = test system: SF-295; assay: Growth inhibition of human SF295 cells after 24 hrs by MTT assay; conditions: SF-295, 24 h
[11] = test system: SN12C; assay: Growth inhibition of human SN12C cells after 24 hrs by MTT assay
[12] = test system: EKVX; assay: Growth inhibition of human EKVX cells at 10 uM after 24 hrs by MTT assay relative to control; parameters: scale not given: the % may be the effect or the level left
[13] = test system: OVCAR-4; assay: Growth inhibition of human OVCAR4 cells at 10 uM after 24 hrs by MTT assay relative to control; parameters: scale not given: the % may be the effect or the level left
[14] = test system: ACHN; assay: Growth inhibition of human ACHN cells at 10 uM after 24 hrs by MTT assay relative to control; parameters: scale not given: the % may be the effect or the level left
[15] = read-out: LC50 (the source's name)
[16] = read-out: pLC50 (the source's name) (converted)

Cc1onc(-c2c3ccccc3c(Cl)c3ccccc23)c1C(=O)Nc1cc(C(=O)NCCCN(C)CCCNC(=O)c2cc(NC(=O)c3c(-c4c5ccccc5c(Cl)c5ccccc45)noc3C)cn2C)n(C)c1
TGI [1]: 3040 nM
GI50 ([1]; read-out: GI50): 1630 nM
GI50 ([1]; read-out: pGI50 (converted)): 1620 nM
TGI [2]: 2800 nM
GI50 ([2]; read-out: GI50): 1480 nM
CC50 [2, 15]: 5290 nM
GI50 ([2]; read-out: pGI50 (converted)): 1480 nM
CC50 [2, 16]: 5250 nM
Activity [3]: -100%
Activity [4]: -74.88%
Activity [5]: -100%
TGI [6]: 4590 nM
GI50 ([6]; read-out: GI50): 2150 nM
CC50 [6, 15]: 9770 nM
GI50 ([6]; read-out: pGI50 (converted)): 2140 nM
CC50 [6, 16]: 9770 nM
LC50 [7]: 100000 nM
TGI [7]: 2030 nM
GI50 ([7]; read-out: GI50): 394 nM
GI50 ([7]; read-out: pGI50 (converted)): 398 nM
CC50 [7, 16]: > 100000 nM
Activity [8]: -100%
TGI [9]: > 100000 nM
GI50 ([9]; read-out: GI50): 13200 nM
CC50 [9, 15]: 100000 nM
GI50 ([9]; read-out: pGI50 (converted)): 13200 nM
CC50 [9, 16]: > 100000 nM
TGI [10]: 3330 nM
GI50 ([10]; read-out: GI50): 1670 nM
GI50 ([10]; read-out: pGI50 (converted)): 1660 nM
TGI [11]: 3140 nM
GI50 ([11]; read-out: GI50): 1650 nM
GI50 ([11]; read-out: pGI50 (converted)): 1660 nM
Activity [12]: -58.5%
Activity [13]: -100%
Activity [14]: -100%
